Results filed as inconclusive are left out.

The test system of the assay is nude mice, HT29 intrarenal xenograft, tumor weight T/C. The assay is described as follows: NCI In Vivo Anticancer Drug Screen. Data for tumor model HT29;CX-1 Human Adenocarcinoma (MER+) (intrarenal inoculation) in NU/NU Swiss (nude) mice. The settings on record: endpoint: mean tumor weight change, higher = larger tumour. In outline:
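Endpoint measured as tumor size or survival; ratio reported is treated group over vehicle controls.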

Where [1] appears, read: dose: 1200.0 mg/kg/injection, schedule: Q04DX004 (sc), vehicle: saline.
Setting [2] is: dose: 300.0 mg/kg/injection, schedule: Q04DX004 (sc), vehicle: saline with Tween-80.
The mark [3] stands for this setting: dose: 600.0 mg/kg/injection, schedule: Q04DX004 (sc), vehicle: saline with Tween-80.
Setting [4] is: dose: 200.0 mg/kg/injection, schedule: Q01DX010 (sc), vehicle: saline.
Setting [5] is: dose: 400.0 mg/kg/injection, schedule: Q01DX010 (sc), vehicle: saline.
Where [6] appears, read: dose: 800.0 mg/kg/injection, schedule: Q01DX010 (sc), vehicle: saline.
The mark [7] stands for this setting: dose: 25.0 mg/kg/injection, schedule: Q01DX010 (sc), vehicle: saline.
The mark [8] stands for this setting: dose: 50.0 mg/kg/injection, schedule: Q01DX010 (sc), vehicle: saline.
Where [9] appears, read: dose: 300.0 mg/kg/injection, schedule: Q04DX004 (sc), vehicle: Klucel (hydroxypropylcellulose) (HPC).
Where [10] appears, read: dose: 300.0 mg/kg/injection, schedule: Q04DX004 (sc), vehicle: suspension in saline.
Setting [11] is: dose: 600.0 mg/kg/injection, schedule: Q04DX004 (sc), vehicle: suspension in saline.
The mark [12] stands for this setting: dose: 1200.0 mg/kg/injection, schedule: Q04DX004 (sc), vehicle: suspension in saline.
The mark [13] stands for this setting: dose: 100.0 mg/kg/injection, schedule: Q01DX010 (sc), vehicle: saline with Tween-80.

For the compound `CCN(CC)CCC(=O)c1ccccc1`, the T/C is 65 % of control (dose: 50.0 mg/kg/injection, schedule: Q04DX004 (sc), vehicle: saline with Tween-80); 60 % of control (dose: 100.0 mg/kg/injection, schedule: Q04DX004 (sc), vehicle: saline with Tween-80); 50 % of control (dose: 200.0 mg/kg/injection, schedule: Q04DX004 (sc), vehicle: saline with Tween-80); 77 % of control (dose: 400.0 mg/kg/injection, schedule: Q04DX004 (sc), vehicle: saline with Tween-80).
Take `Clc1ccc(C(c2ccccc2Cl)C(Cl)Cl)cc1` (stereo unspecified): the T/C is 99 % of control under setting [1]; 64 % of control (dose: 2400.0 mg/kg/injection, schedule: Q04DX004 (sc), vehicle: saline); 77 % of control (dose: 4800.0 mg/kg/injection, schedule: Q04DX004 (sc), vehicle: saline); 67 % of control (dose: 9600.0 mg/kg/injection, schedule: Q04DX004 (sc), vehicle: saline).
Turning to `NC(=S)N/N=C/c1ccc(OC(=O)COc2ccc(Cl)cc2)cn1`, the T/C under setting [2] was 103 % of control and the T/C under setting [3] is 150 % of control.
Turning to `CCCC(=O)O`, the T/C was 69 % of control (dose: 100.0 mg/kg/injection, schedule: Q01DX010 (sc), vehicle: saline); 65 % of control under setting [4]; 110 % of control under setting [5]; 79 % of control under setting [6].
Turning to `NC(=O)c1cn(C2OC(CO)C(O)C2O)c2ncnc(N)c12` (stereo unspecified), the T/C runs as follows: (dose: 1.0 mg/kg/injection, schedule: Q01DX010 (sc), vehicle: saline) 115 % of control; (dose: 2.0 mg/kg/injection, schedule: Q01DX010 (sc), vehicle: saline) 94 % of control.
For the compound `c1cc[c]([Sn][c]2ccccc2)cc1`, the T/C (dose: 80.0 mg/kg/injection, schedule: Q01DX010 (sc), vehicle: saline) was 88 % of control; the T/C (dose: 160.0 mg/kg/injection, schedule: Q01DX010 (sc), vehicle: saline) is 113 % of control; the T/C (dose: 320.0 mg/kg/injection, schedule: Q01DX010 (sc), vehicle: saline) was 122 % of control.
For the compound `COC1/C=C/C=C(/C)Cc2cc(O)c(Cl)c(c2)N(C)C(=O)CC(OC(=O)C(C)C)C2(C)OC2C(C)C2CC1(O)NC(=O)O2` (stereo unspecified), the T/C reads like this: (dose: 0.5 mg/kg/injection, schedule: Q04DX004 (sc), vehicle: saline + alcohol) 123 % of control; (dose: 1.0 mg/kg/injection, schedule: Q04DX004 (sc), vehicle: saline + alcohol) 78 % of control; (dose: 2.0 mg/kg/injection, schedule: Q04DX004 (sc), vehicle: saline + alcohol) 78 % of control; (dose: 4.0 mg/kg/injection, schedule: Q04DX004 (sc), vehicle: saline + alcohol) 65 % of control.
On to `CCOC(=O)Nc1cc2c(c(N)n1)N=C(c1ccccc1)CN2`, for which the T/C was 90 % of control (dose: 12.5 mg/kg/injection, schedule: Q04DX004 (sc), vehicle: saline with Tween-80) and 104 % of control (dose: 25.0 mg/kg/injection, schedule: Q04DX004 (sc), vehicle: saline with Tween-80).
For `COc1cccc2c1C(=O)c1c(O)c3c(c(O)c1C2=O)C[C@H](O)C[C@@H]3OC1CC(N)C(O)C(C)O1` (stereo partly specified), the T/C runs as follows: (dose: 12.5 mg/kg/injection, schedule: Q01DX010 (sc), vehicle: saline) 114 % of control; under setting [7], 41 % of control; under setting [8], 87 % of control.
As for `CCN(CC)c1ccc2cc(-c3nc4ccccc4n3C)c(=O)oc2c1`, the T/C reads like this: (dose: 75.0 mg/kg/injection, schedule: Q04DX004 (sc), vehicle: Klucel (hydroxypropylcellulose) (HPC)) 82 % of control; (dose: 150.0 mg/kg/injection, schedule: Q04DX004 (sc), vehicle: Klucel (hydroxypropylcellulose) (HPC)) 67 % of control; under setting [9], 88 % of control.
On to `O=c1n(CC2CO2)c(=O)n(CC2CO2)c(=O)n1CC1CO1` (stereo unspecified), for which the T/C was 42 % of control (dose: 18.75 mg/kg/injection, schedule: Q04DX004 (sc), vehicle: saline with Tween-80); 76 % of control under setting [7]; 33 % of control (dose: 37.5 mg/kg/injection, schedule: Q04DX004 (sc), vehicle: saline with Tween-80); 29 % of control under setting [8].
As to `O=c1cnn(C2OC(CO)C(O)C2O)c(=O)[nH]1` (stereo unspecified), the T/C reads like this: under setting [4], 71 % of control; under setting [5], 100 % of control; under setting [6], 97 % of control; (dose: 1600.0 mg/kg/injection, schedule: Q01DX010 (sc), vehicle: saline) 34 % of control.
For the compound `Oc1c(Cl)cc(C(c2cc(Cl)c(O)c(Cl)c2)C(c2cc(Cl)c(O)c(Cl)c2)c2cc(Cl)c(O)c(Cl)c2)cc1Cl`, the T/C was 104 % of control (dose: 450.0 mg/kg/injection, schedule: Q04DX004 (sc), vehicle: Klucel (hydroxypropylcellulose) (HPC)); 95 % of control (dose: 900.0 mg/kg/injection, schedule: Q04DX004 (sc), vehicle: Klucel (hydroxypropylcellulose) (HPC)); 96 % of control (dose: 1800.0 mg/kg/injection, schedule: Q04DX004 (sc), vehicle: Klucel (hydroxypropylcellulose) (HPC)).
Regarding `O=C(O)CCCCCCCC(=O)O`, the T/C (dose: 600.0 mg/kg/injection, schedule: Q04DX004 (sc), vehicle: distilled water + Tween-80) is 67 % of control and the T/C (dose: 2400.0 mg/kg/injection, schedule: Q04DX004 (sc), vehicle: distilled water + Tween-80) is 113 % of control.
As for `O=C(O)C(CSC(c1ccccc1)(c1ccccc1)c1ccccc1)N=Cc1cccs1` (stereo unspecified), the T/C (dose: 200.0 mg/kg/injection, schedule: Q04DX004 (sc), vehicle: suspension in saline) is 12 % of control.
Consider `N=c1ccn2c(n1)OC1C(O)C(CO)OC12` (stereo unspecified), for which the T/C runs as follows: (dose: 300.0 mg/kg/injection, schedule: Q04DX004 (sc), vehicle: saline) 50 % of control; under setting [10], 105 % of control; (dose: 400.0 mg/kg/injection, schedule: Q04DX004 (sc), vehicle: saline) 98 % of control; (dose: 600.0 mg/kg/injection, schedule: Q04DX004 (sc), vehicle: saline) 60 % of control; under setting [11], 66 % of control; (dose: 800.0 mg/kg/injection, schedule: Q04DX004 (sc), vehicle: saline) 31 % of control. The T/C is, setting by setting: under setting [1], 42 % of control; under setting [12], 38 % of control; (dose: 1600.0 mg/kg/injection, schedule: Q04DX004 (sc), vehicle: saline) 36 % of control; (dose: 2400.0 mg/kg/injection, schedule: Q04DX004 (sc), vehicle: suspension in saline) 42 % of control.
`[I][Hg][CH2]C1OCCOC1[CH2][Hg][I]` (stereo unspecified): the T/C was 81 % of control under setting [9]; 104 % of control (dose: 600.0 mg/kg/injection, schedule: Q04DX004 (sc), vehicle: Klucel (hydroxypropylcellulose) (HPC)); 80 % of control (dose: 1200.0 mg/kg/injection, schedule: Q04DX004 (sc), vehicle: Klucel (hydroxypropylcellulose) (HPC)); 73 % of control (dose: 2400.0 mg/kg/injection, schedule: Q04DX004 (sc), vehicle: Klucel (hydroxypropylcellulose) (HPC)).
With `CCOC(=O)c1ccc(NC(=O)Nc2nccs2)cc1`, the T/C was 54 % of control under setting [13]; 58 % of control (dose: 200.0 mg/kg/injection, schedule: Q01DX010 (sc), vehicle: saline with Tween-80); 74 % of control (dose: 400.0 mg/kg/injection, schedule: Q01DX010 (sc), vehicle: saline with Tween-80); 67 % of control (dose: 800.0 mg/kg/injection, schedule: Q01DX010 (sc), vehicle: saline with Tween-80).
With `O=c1nc(Oc2ccccc2)nc2ncccn12`, the T/C reads like this: (dose: 50.0 mg/kg/injection, schedule: Q01DX010 (sc), vehicle: saline with Tween-80) 312 % of control; under setting [13], 156 % of control.
Take `CC(=O)N(C)O`: the T/C is, setting by setting: (dose: 150.0 mg/kg/injection, schedule: Q04DX004 (sc), vehicle: saline with Tween-80) 88 % of control; under setting [2], 71 % of control; under setting [3], 45 % of control.
For `CN(C)N=Nc1cn[nH]c1C(N)=O`, the T/C under setting [10] is 85 % of control, the T/C under setting [11] is 67 % of control and the T/C under setting [12] is 74 % of control.

These data come from PubChem BioAssay AID206 (DTP/NCI, 2004).
